According to PubChem BioAssay (NCI):
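Each compound was tested at five concentrations against cells in 96-well plates for 48 hours. The concentration for 50% growth inhibition is given as GI50. TGI: concentration producing complete growth inhibition.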

Assays:
Assay in all cases: NCI-60 cell line screen, 48 h
[1] = tested on: ACHN renal
[2] = tested on: HCT-116 colon
[3] = tested on: HL-60(TB) leukemia
[4] = tested on: KM12 colon
[5] = tested on: LOX IMVI melanoma
[6] = tested on: M14 melanoma
[7] = tested on: OVCAR-5 ovarian
[8] = tested on: SF-268 CNS
[9] = tested on: SNB-75 CNS
[10] = tested on: UO-31 renal

Row | Structure (SMILES) | GI50 [1] [µM] | TGI [1] [µM] | GI50 [2] [µM] | TGI [2] [µM] | GI50 [3] [µM] | TGI [3] [µM] | GI50 [4] [µM] | TGI [4] [µM] | GI50 [5] [µM] | TGI [5] [µM] | GI50 [6] [µM] | TGI [6] [µM] | GI50 [7] [µM] | TGI [7] [µM] | GI50 [8] [µM] | TGI [8] [µM] | GI50 [9] [µM] | TGI [9] [µM] | GI50 [10] [µM] | TGI [10] [µM]
1 | O=S(=O)(NCCCNc1nccc(-c2c(-c3ccc(F)cc3)nc3sccn23)n1)c1ccc2ccccc2c1 | 3.42 | > 100 | 4.41 | > 100 | 4.25 | > 100 | 2.86 | 9.96 | 4.35 | > 100 | 6.53 | > 100 | > 100 | > 100 | 6.46 | > 100 | 5.22 | > 100 | 3.58 | > 100
2 | O=C1OCC2=C1C(c1ccccc1)c1cc3c(cc1N2CCO)OCO3 (stereo not given) | 30.5 | > 50 | 1.79 | > 50 | 3.46 | > 50 | 2.37 | > 50 | 7 | > 50 | 1.92 | 23.3 | 13.4 | > 50 | 3.82 | > 50 | 2.06 | > 50 | 27.8 | > 50
3 | CC(C)CCC1(CCN)C(=O)NC(=O)NC1=O |  | > 100 |  | > 100 |  | 66.7 |  | > 100 |  | > 100 |  | > 100 |  | > 100 |  | > 100 |  | > 100 |  | > 100
4 | CCCCn1c(-c2ccc(C(=O)O/N=C(\N)c3ccc4c(c3)OCO4)cc2)nc(-c2ccccc2)c1-c1ccccc1 | 1.35 | 2.81 | 1.7 | 3.66 | 0.603 | 2.75 | 4.72 | > 100 | 0.185 | 0.379 | 2.85 | 17.5 | 4.77 | > 100 | 1.97 | 4.37 | 1.53 | 3.88 | 0.229 | 0.562
5 | c1c[nH]c(CN2CCOCC2)n1 |  | > 100 |  | > 100 |  | > 100 |  | > 100 |  | > 100 |  | > 100 |  | > 100 |  | > 100 |  | > 100 |  | > 100
6 | CCCCN(CC)CC(C(C)=O)c1c(O)c2ccccc2oc1=O (stereo not given) |  | > 100 |  | > 100 |  | > 100 |  | > 100 |  | > 100 |  | > 100 |  | > 100 |  | > 100 |  | > 100 |  | > 100
7 | CN1/C(=C\C=C\C2=[N+](C)c3ccccc3C2(C)C)C(C)(C)c2ccccc21 | 0.268 | 3.15 | 0.0303 | 1.11 | 0.0271 | 0.217 | 0.0363 | 0.932 | 0.0445 | 0.796 | 0.223 | 1.31 | 0.37 | 15.5 | 0.274 | 13 | 0.271 | 1.88 | 0.229 | 3.23
8 | O=[N+]([O-])c1ccc(-c2ccc(-c3csc(Nc4ccccc4)n3)o2)cc1 |  | 31.1 |  | 47 |  | 13.5 |  | 38.3 |  | 34.8 |  | 38 |  | 31.6 |  | 33.2 |  | > 56.8 |  | 39
9 | Cc1ccc(-c2nc3nc(-c4ccc(F)cc4)nc(N4CCCNCC4)c3o2)cc1 | 1.73 | 3.1 | 0.457 | 1.73 | 0.211 | 0.46 | 1.79 | 3.42 | 1.18 | 2.55 | 1.86 | 3.56 | 1.65 | 3 | 1.73 | 3.44 | 1.06 | 2.24 | 1.44 | 2.79
10 | Cc1cc(I)cc(CN(C)CCCN2CCCC2)c1O | 23.1 | 65.4 | 15.5 | 55.6 | 13.4 | 31.3 | 20.3 | 46 | 15 | 30.6 | 16.4 | 33 | 27.8 | > 94.7 | 17.2 | 49.2 | 15.3 | 35.6 | 20 | > 60.9
11 | COc1ccc2c(c1)/C(=C/c1cc(OC)c(OC)c(OC)c1)C(=O)N2 | 4.19 | > 100 | 0.0272 | > 100 | 0.0908 | > 100 | 0.102 | > 39.9 | 0.443 | > 100 | 0.351 | 11.7 | 1.9 | > 100 | 0.419 | > 100 | 0.483 | 2.05 | 2.74 | > 100
12 | c1ccc2[nH]c(-c3ccc(Nc4nc(N5CCCCC5)nc(N5CCOCC5)n4)cc3)nc2c1 | 3.14 | > 100 | 1.91 | 3.87 | 2.42 | 5.8 | 2.85 | 9.54 | 1.75 | 3.58 | 2.05 | 4.72 | 4.06 | 29.3 | 3.21 | 20.1 | 2.1 | 16.9 | 2 | 5.14
13 | C/C(=N/NC(=O)C[N+](C)(C)C)C(CN(C)C)C(=O)Nc1ccccc1 (stereo not given) |  | > 100 |  | > 100 |  | > 100 |  | > 100 |  | > 100 |  | > 100 |  | > 100 |  | > 100 |  | > 100 |  | > 100
14 | CCNC(=O)c1noc(-c2cc(C(C)C)c(O)cc2O)c1-c1ccc(CN2CCOCC2)cc1 | 0.0373 | > 100 | 0.0313 | 15.5 | 0.024 | 1.17 | 0.0203 | 0.0741 | 0.0159 | 0.0765 | 0.0384 | 18.6 | 0.0631 | 29.3 | 2.44 | 34.9 | 4.51 | 55.8 | 0.0457 | > 100
